Assay results published in patent US7354728B2, “Coactivation of nuclear receptors” (N.V. Organon, priority 2000, dated 2008).
Each block holds one compound with its values, some of them ahead of it.

Key:
ERβ and COASTER = ERβ and COASTER (Homo sapiens, UniProt Q92731); assay: Yeast two-hybrid assay, β-galactosidase reporter, ERβ with COASTER amino acids 1-234; assay type: cell-based; settings: yeast AH109, pGBT9.ERβ + pACT2.COASTERΔ; 10^−8 M 17β-estradiol, 10^−5 M raloxifen
ERβ = biological target: T1, ERβ (Homo sapiens, UniProt Q92731); assay: Transient transfection of U-2 OS cells with ERβ and ERE luciferase reporter, with or without COASTER; assay type: cell-based; settings: 10^−8 M ligand, ± SD triplicate
T1 construct: expressed in transfected cells; host or cells: U-2 OS
Experimental: (§1) To test the functional role of COASTER in a mammalian setting, the full length COASTER (amino acids 1-1013) cDNA was cloned in a mammalian cell expression vector. The functional role of COASTER was analyzed by cotransfection of U-2 OS cells with the COASTER expression plasmid in combination with a steroid receptor expressing plasmid, and a plasmid containing a luciferase reporter gene under control of a hormone responsive element. Following transfection, cells were stimulated with the appropriate hormone for the receptor under study.
(§2) U-2 OS cells were transiently transfected with pNGV1.ERβ and p4ERE-TATA-LUC (1), pNGV1.ERα and p4ERE-TATA-LUC (2), pKCRE.PR and pMMTV-LUC (3) or pNGV1.GR and pMMTV-LUC (4). Where indicated, COASTER expression construct pCDNA3.1HISC.COASTER was added to the transfection mixture. Following transfection, cell were incubated with the hormones indicated in the top row. […] Org 2058=16α-ethyl-21-hydroxy-19-norpregn-4-ene-3,20-dione.
(§3) Initially, a plasmid encoding a truncated form of COASTER (pACT2.COASTERΔ, amino acids 1-234) was isolated in the yeast two hybrid screen. […] The 5′ end of the COASTER (amino acid 1 to 332) was amplified by PCR on human-testis Marathon Ready cDNA (Clontech, Palo Alto, USA, cat.#7414-1) using primers […] […]

[1] = biological target: progesterone receptor (PR) (Homo sapiens, UniProt P06401); assay: Transient transfection of U-2 OS cells with PR and pMMTV-LUC reporter, with or without COASTER; assay type: cell-based; settings: 10^−8 M ligand, ± SD triplicate
Experimental: as §1, §2, §3

[2] = biological target: glucocorticoid receptor, expressed from pNGV1.GR in U-2 OS cells (human) (UniProt P04150); assay: cell-based or functional assay
[3] = biological target: human estrogen receptor β, expressed from pNGV1.ERβ in U-2 OS cells (human) (UniProt Q92731); assay: cell-based or functional assay
[4] = biological target: progesterone receptor, expressed from pKCRE.PR in U-2 OS cells; assay: cell-based or functional assay

Sequence of human estrogen receptor β, expressed from pNGV1.ERβ in U-2 OS cells (human) (Q92731 whole entry): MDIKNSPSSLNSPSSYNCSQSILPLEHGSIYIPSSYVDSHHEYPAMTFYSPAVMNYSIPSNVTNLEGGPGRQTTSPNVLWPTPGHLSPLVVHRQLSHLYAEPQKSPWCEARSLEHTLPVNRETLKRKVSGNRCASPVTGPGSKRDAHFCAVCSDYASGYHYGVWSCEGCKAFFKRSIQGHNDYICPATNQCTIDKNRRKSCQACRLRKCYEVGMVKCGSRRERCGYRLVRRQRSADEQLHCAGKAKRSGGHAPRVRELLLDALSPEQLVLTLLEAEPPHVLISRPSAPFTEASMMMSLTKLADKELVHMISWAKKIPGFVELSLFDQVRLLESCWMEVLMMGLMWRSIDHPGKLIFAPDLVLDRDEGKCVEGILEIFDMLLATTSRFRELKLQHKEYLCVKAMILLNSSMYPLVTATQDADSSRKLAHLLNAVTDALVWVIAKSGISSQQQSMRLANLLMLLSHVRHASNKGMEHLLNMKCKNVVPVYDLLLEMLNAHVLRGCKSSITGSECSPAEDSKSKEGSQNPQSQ
Sequence of progesterone receptor (PR) (P06401 whole entry, species assumed): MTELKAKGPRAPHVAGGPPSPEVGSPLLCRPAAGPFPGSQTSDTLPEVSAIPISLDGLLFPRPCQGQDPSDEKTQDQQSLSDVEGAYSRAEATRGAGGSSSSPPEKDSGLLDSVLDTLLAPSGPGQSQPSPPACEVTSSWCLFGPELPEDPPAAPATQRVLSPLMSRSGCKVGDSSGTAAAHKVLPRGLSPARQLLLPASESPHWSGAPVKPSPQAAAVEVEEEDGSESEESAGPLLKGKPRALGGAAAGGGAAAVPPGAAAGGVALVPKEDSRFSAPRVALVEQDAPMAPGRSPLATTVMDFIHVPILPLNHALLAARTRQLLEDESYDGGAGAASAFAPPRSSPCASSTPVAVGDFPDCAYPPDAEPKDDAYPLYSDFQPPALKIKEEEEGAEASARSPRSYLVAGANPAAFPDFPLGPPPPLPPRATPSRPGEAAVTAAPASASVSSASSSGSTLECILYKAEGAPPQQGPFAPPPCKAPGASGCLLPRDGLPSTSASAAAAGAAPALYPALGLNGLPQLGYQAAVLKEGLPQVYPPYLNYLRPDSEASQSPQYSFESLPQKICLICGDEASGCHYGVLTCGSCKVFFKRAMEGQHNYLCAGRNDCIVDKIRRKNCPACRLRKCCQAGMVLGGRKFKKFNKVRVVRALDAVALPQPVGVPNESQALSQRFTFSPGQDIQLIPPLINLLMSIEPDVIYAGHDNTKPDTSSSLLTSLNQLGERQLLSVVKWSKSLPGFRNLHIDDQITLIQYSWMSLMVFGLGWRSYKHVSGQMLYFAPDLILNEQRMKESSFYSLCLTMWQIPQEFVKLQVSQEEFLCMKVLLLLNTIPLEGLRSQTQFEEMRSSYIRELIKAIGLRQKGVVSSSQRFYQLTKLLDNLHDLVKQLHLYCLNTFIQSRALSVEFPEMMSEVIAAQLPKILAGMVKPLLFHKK
T1 sequence (Q92731 whole entry): as the sequence (Q92731 whole entry) above
Sequence of glucocorticoid receptor, expressed from pNGV1.GR in U-2 OS cells (human) (P04150 whole entry): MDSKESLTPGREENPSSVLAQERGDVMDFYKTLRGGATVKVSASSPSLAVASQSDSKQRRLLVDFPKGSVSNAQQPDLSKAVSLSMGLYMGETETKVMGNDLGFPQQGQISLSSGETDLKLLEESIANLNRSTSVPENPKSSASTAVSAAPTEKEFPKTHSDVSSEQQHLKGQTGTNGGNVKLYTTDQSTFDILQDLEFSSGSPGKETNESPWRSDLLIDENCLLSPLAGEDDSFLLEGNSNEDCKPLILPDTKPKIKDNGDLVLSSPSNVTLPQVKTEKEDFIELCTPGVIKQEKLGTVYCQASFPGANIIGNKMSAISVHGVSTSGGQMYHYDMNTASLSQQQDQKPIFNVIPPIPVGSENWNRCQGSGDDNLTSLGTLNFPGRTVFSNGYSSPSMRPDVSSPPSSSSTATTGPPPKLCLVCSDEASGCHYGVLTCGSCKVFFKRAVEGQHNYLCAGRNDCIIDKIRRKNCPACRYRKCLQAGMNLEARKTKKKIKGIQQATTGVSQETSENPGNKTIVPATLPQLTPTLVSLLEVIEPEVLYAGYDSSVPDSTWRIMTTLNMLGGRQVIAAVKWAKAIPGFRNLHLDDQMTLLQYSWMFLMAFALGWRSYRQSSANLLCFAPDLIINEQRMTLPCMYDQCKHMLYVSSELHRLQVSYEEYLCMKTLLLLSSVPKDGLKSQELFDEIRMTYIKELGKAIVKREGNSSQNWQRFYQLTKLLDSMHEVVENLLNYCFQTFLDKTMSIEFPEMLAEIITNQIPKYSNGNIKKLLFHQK
Sequence of ERβ and COASTER (Q92731 whole entry, the tested form may be a part): as the sequence (Q92731 whole entry) above

Compound: C[C@]12CC[C@@H]3c4ccc(O)cc4CC[C@H]3[C@@H]1CC[C@@H]2O [17β-estradiol]
signalling via the ERα/β chimera (ERα/β chimera): able to signal
β-galactosidase reporter activity (ERβ-COASTER interaction, FIG. 3) (ERβ and COASTER): dose-dependent induction
luciferase activity (ERβ; pNGV1.ERβ + p4ERE-TATA-LUC + COASTER): 8200 ± 819
luciferase activity (ERβ; pNGV1.ERβ + p4ERE-TATA-LUC, no COASTER): 500 ± 109

luciferase activity ([1]; pKCRE.PR + pMMTV-LUC + COASTER): 3229 ± 683
luciferase activity ([1]; pKCRE.PR + pMMTV-LUC, no COASTER): 822 ± 112
Compound: CC[C@@H]1C[C@H]2[C@@H]3CCC4=CC(=O)CC[C@@H]4[C@H]3CC[C@]2(C)[C@H]1C(=O)CO [Org 2058, 16α-ethyl-21-hydroxy-19-norpregn-4-ene-3,20-dione]

Compound: O=C(c1ccc(OCCN2CCCCC2)cc1)c1c(-c2ccc(O)cc2)sc2cc(O)ccc12 [raloxifen]
signalling via the ERα/β chimera (ERα/β chimera): able to signal

luciferase activity, pMMTV-LUC in U-2 OS cells, 10^-8 M Dexamethasone (luciferase activity) [2]: 35200
luciferase activity, pMMTV-LUC in U-2 OS cells, no hormone (luciferase activity) [2]: 103
luciferase activity, p4ERE-TATA-LUC in U-2 OS cells, 10^-8 M 17β-estradiol (luciferase activity) [3]: 8200
luciferase activity, p4ERE-TATA-LUC in U-2 OS cells, 10^-8 M ICI 164,384 (luciferase activity) [3]: 101
luciferase activity, p4ERE-TATA-LUC in U-2 OS cells, no hormone (luciferase activity) [3]: 133
luciferase activity, pMMTV-LUC in U-2 OS cells, 10^-8 M Org 2058 (luciferase activity) [4]: 3230
luciferase activity, pMMTV-LUC in U-2 OS cells, no hormone (luciferase activity) [4]: 81
Compound: full length COASTER (amino acids 1-1013), expressed from pCDNA3.1HISC.COASTER (from UniProt Q9Y4E5 1-1013)
